Test results as given in article PMC9380671, “Development of spiro-3-indolin-2-one containing compounds of antiproliferative and anti-SARS-CoV-2 properties” (Scientific Reports, 2022).
Read-outs that look alike come from different tables or passages of the source.

How the values were obtained:
[1] = MTT cytotoxicity assay (CC50); assay type: cell-based; settings: African green monkey, VERO-E6 cells
Method: The cytotoxic activity of the compounds was tested in VERO-E6 cells by using the 3-(4,5-dimethylthiazol-2-yl)-2,5-diphenyltetrazolium bromide (MTT) method with minor modifications. Briefly, the cells were seeded in 96 well-plates […] at a density of 3 x 10^5 cell/ml and incubated for 24 h at 37 °C in 5% CO2. After 24 h, cells were treated with various concentrated of the tested compounds in triplicates. 24 h later, the supernatant was discarded and cell monolayers were washed with sterile 1x phosphate buffer saline (PBS) 3 times and MTT solution (20 µl of 5 mg/ml) was added to each well and incubated at 37 °C for 4 h followed by medium aspiration. In each well, the formed formazan crystals were dissolved with 200 µl of acidified isopropanol (0.04 M HCl in absolute isopropanol = 0.073 ml HCl in 50 ml isopropanol). Eventually, the absorbance was measured at λmax 570 nm using the Anthos Zenyth 200rt plate reader (Anthos Labtec Instruments, Heerhugowaard, Netherlands). The cytotoxicity of various concentrations compared to the untreated cells was determined using nonlinear regression analysis by plotting log inhibitor versus normalized response.^12^-14

[2] = tested on: HCT116 (colon) cancer cell line; assay: MTT antiproliferation, HCT116; assay type: cell-based, human; settings: for IC50: Homo sapiens, HCT-116, 72 h, read-out: IC50 (µM) ± SEM HCT116; for SI (selectivity index) HCT116: IC50 of RPE1/IC50 of cancer cell line
Method: (§1) Antiproliferation properties of the targeted agents were investigated by the standard MTT technique against diverse human cancer cell lines [MCF7 (breast), HCT116 (colon), A431 (skin squamous) and PaCa2 (pancreatic)][67] (Table 1, Supplementary Figs. S48‒S51).
(§2) Cells were seeded at concentration of 30000 cells per well in fresh complete growth medium in 96-well tissue culture microtiter plates for 24 h. […] 0.5% DMSO was used as negative control. Triplicate wells were prepared for each individual dose. After 72 h of incubation, medium was aspirated, 40 μl MTT salt (2.5 mg ml^-1) was added to each well and incubated for further 4 h at 37 °C. To stop the reaction and dissolve the formed crystals, 150 μl of 10% sodium dodecyl sulfate (SDS) in deionized water was added to each well and incubated overnight at 37 °C.
(§3) Data were collected as mean values for experiments performed in triplicates for each individual dose which had been measured by MTT assay. […] The cell surviving fraction was calculated according to the following equation.
(§4) Surviving fraction = OpticaldensityO.D.oftreatedcellsO.D.ofcontrolcells
(§5) Statistical calculations for determination of the mean and standard error mean values were determined by SPSS 16 software.

[3] = tested on: A431 (skin squamous) cancer cell line; assay: MTT antiproliferation, A431; assay type: cell-based, human; settings: for IC50: Homo sapiens; for SI (selectivity index) A431: IC50 of RPE1/IC50 of cancer cell line
Method: as §1, §2, §3, §4, §5

[4] = target: BChE (Homo sapiens, UniProt P06276); assay: BChE inhibition (DTNB, butyrylthiocholine iodide)
Chain of BChE (P06276 29-602, species assumed): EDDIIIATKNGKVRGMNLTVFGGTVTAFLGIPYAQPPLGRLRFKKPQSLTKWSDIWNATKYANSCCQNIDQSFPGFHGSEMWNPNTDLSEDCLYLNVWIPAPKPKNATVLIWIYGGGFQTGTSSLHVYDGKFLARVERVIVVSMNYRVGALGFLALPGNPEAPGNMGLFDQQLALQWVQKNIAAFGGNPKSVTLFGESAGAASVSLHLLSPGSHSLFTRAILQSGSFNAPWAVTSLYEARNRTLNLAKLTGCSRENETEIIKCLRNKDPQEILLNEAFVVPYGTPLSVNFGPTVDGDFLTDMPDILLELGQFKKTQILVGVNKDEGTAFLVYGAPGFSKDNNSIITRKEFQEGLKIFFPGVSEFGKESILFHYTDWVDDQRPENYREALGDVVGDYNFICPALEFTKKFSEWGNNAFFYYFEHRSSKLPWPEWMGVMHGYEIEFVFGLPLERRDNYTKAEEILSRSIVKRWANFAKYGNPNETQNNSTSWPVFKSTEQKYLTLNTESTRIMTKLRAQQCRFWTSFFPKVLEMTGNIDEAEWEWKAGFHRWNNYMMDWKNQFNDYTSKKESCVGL

[5] = tested on: RPE1 (normal human immortalized retinal pigment epithelial cell line); assay: MTT toxicity towards normal cells, RPE1; assay type: cell-based; settings: RPE-1, read-out: IC50 (µM) ± SEM RPE1
Method: The safety of the synthesized agents against non-cancer/normal RPE1 (retinal pigment epithelium) cell line was assessed (Table 1, Supplementary Fig. S52). The SI (selectivity index) for the tested compounds against RPE1 cell line confirms the safety towards non-cancer cells. […] Compound 6d and 6h which are also of high anti-PaCa2 show remarkable SI values (SI = > 3.8, > 3.6, respectively).
The agents synthesized were also tested against RPE1 (normal human immortalized retinal pigment epithelial cell line) cell (in DMEM-F12 medium) to determine the toxicity/selectivity towards normal cells relative to the cancer cell lines utilized.
(§6) Statistical calculations for determination of the mean and standard error mean values were determined by SPSS 16 software. The observed anti-proliferative properties are presented in Table 1 (Supplementary Figs. S48‒S52).

[6] = tested on: MCF7 (breast) cancer cell line; assay: MTT antiproliferation, MCF7; assay type: cell-based, human; settings: for IC50: Homo sapiens, MCF7, 72 h, read-out: IC50 (µM) ± SEM MCF7; for SI (selectivity index) MCF7: IC50 of RPE1/IC50 of cancer cell line
Method: as §1, §2, §3, §4, §5

[7] = target: T1, VEGFR-2 (Homo sapiens, UniProt P35968); assay type: cell-based; settings: western blot, MCF7, compound at its MTT IC50; for VEGFR-2 RQ (relative quantification): control RQ 3.2634
T1 construct: Western blot technique was considered for EGFR and VEGFR-2 properties determination; endogenous in cells; host or cells: MCF7 (breast cancer cell line)
T1 sequence (P35968 20-1356): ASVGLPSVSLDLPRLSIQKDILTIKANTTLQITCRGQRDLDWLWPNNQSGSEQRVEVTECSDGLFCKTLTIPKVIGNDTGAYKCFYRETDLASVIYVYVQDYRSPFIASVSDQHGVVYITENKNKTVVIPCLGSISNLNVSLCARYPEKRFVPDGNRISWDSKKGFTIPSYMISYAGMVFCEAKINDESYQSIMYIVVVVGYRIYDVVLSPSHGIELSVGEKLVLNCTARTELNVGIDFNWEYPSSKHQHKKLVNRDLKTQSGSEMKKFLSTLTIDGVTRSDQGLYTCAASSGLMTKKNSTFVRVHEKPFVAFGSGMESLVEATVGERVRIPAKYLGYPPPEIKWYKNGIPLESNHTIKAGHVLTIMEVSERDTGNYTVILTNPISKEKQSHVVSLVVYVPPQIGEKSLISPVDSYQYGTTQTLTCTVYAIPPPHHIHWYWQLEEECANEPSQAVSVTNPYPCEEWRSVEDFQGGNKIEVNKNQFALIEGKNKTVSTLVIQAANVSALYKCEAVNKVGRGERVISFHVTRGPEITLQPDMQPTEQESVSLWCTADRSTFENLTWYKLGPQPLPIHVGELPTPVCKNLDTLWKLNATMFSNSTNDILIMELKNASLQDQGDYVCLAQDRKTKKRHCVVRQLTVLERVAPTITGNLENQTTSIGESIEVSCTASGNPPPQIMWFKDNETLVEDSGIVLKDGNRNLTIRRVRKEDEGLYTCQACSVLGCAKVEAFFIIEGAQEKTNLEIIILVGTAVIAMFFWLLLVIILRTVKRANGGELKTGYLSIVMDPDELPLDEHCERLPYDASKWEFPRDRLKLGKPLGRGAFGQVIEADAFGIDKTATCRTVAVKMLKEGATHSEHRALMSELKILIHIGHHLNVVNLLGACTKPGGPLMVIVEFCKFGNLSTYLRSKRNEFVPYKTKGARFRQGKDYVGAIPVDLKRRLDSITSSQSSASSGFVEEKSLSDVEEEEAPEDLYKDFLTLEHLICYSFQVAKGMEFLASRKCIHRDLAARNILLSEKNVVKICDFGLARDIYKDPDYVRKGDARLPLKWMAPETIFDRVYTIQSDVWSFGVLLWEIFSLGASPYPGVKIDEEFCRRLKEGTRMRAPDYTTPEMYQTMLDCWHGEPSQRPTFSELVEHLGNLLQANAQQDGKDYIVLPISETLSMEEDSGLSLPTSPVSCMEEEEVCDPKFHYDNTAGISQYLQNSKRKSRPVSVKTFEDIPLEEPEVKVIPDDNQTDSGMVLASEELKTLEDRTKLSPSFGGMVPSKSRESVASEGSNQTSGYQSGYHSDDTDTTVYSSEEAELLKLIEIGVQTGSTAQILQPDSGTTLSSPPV
Text: (§7) The western blot technique was applied utilizing the IC50 observed for each respective agent synthesized during MTT assay[85],[86]. Consideration of multi-targeted inhibitory properties investigation is based in the fact that cancer initiation and proliferation sometimes utilizes many receptors or signaling pathways.
(§8) Western blot technique was considered for EGFR and VEGFR-2 properties determination utilizing the IC50 observed of each respective agent synthesized during MTT assay against MCF7 (breast) cancer cell line. All the studies were conducted according to the manufacturer’s instruction.^10,^11

[8] = target: T2, EGFR (Homo sapiens, UniProt P00533); assay type: cell-based; settings: western blot, MCF7, compound at its MTT IC50; for EGFR RQ (relative quantification): control RQ 3.4461
T2 construct: Western blot technique was considered for EGFR and VEGFR-2 properties determination; endogenous in cells; host or cells: MCF7 (breast cancer cell line)
T2 sequence (P00533 25-1210): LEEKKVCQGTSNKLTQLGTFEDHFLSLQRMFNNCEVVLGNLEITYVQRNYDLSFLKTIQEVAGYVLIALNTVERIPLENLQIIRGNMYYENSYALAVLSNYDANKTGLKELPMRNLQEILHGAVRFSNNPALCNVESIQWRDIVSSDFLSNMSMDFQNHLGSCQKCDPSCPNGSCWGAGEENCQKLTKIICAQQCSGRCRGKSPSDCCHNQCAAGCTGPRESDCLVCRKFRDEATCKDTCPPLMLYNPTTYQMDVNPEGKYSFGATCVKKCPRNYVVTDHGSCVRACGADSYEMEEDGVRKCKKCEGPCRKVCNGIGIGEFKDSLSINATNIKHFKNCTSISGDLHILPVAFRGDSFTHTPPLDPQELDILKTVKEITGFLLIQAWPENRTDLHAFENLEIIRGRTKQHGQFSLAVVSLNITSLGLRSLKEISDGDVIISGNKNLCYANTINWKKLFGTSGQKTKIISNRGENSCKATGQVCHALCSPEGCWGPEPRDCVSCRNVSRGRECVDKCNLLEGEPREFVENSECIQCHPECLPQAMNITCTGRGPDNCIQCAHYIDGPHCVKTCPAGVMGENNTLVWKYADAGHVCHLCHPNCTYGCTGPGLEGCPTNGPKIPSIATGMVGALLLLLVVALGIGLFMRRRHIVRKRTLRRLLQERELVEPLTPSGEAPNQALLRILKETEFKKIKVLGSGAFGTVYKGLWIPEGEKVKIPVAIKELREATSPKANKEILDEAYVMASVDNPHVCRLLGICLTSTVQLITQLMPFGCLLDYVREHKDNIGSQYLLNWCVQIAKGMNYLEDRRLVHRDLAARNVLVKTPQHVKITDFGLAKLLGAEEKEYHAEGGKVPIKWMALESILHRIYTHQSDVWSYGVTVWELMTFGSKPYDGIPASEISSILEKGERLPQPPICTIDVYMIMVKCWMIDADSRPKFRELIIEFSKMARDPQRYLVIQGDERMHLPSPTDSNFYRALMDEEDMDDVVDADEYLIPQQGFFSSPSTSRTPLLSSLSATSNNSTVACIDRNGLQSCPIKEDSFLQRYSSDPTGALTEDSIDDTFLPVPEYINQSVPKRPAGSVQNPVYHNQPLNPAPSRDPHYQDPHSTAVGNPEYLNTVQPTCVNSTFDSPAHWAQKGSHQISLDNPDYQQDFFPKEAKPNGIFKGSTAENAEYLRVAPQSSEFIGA
Text: as §7, §8

[9] = tested on: SARS-CoV-2 (hCoV-19/Egypt/NRC-03/2020); assay: Vero-E6 cell viral infection model, anti-SARS-CoV-2 IC50 (CPE, crystal violet); assay type: cell-based; settings: for IC50: Severe acute respiratory syndrome coronavirus 2, Vero C1008; for SI = CC50/IC50: Vero-E6, SARS-CoV-2
[10] = tested on: PaCa2 (pancreatic) cancer cell line; assay: MTT antiproliferation, PaCa-2; assay type: cell-based, human; settings: for IC50: Homo sapiens, read-out: IC50 (µM) ± SEM PaCa-2; for SI (selectivity index) PaCa-2: IC50 of RPE1/IC50 of cancer cell line
Method: as §1
Cells were suspended in DMEM medium for MCF7, A431, PaCa-2 and McCoy’s 5A for HCT116 in addition to 1% antibiotic–antimycotic mixture (10000 μg ml^-1 potassium penicillin, 10000 μg ml^-1 streptomycin sulfate and 25 μg ml^-1 amphotericin B), 10% fetal bovine serum and 1% L-glutamine at 37 °C, under 5% CO2 and 95% humidity. Cells were seeded at concentration of 30000 cells per well in fresh complete growth medium in 96-well tissue culture microtiter plates for 24 h. Media was aspirated, fresh complete medium was added and cells were incubated with different concentrations of the tested compound to give a final concentration of [50, 25, 12.5 and 6.25 μM “in addition to 3.125, 1.56 and 0.78 μM in case of high potent analogues”). 0.5% DMSO was used as negative control. Triplicate wells were prepared for each individual dose. After 72 h of incubation, medium was aspirated, 40 μl MTT salt (2.5 mg ml^-1) was added to each well and incubated for further 4 h at 37 °C. To stop the reaction and dissolve the formed crystals, 150 μl of 10% sodium dodecyl sulfate (SDS) in deionized water was added to each well and incubated overnight at 37 °C. The absorbance was then measured at 570 nm and a reference wavelength of 595 nm.
as §3, §4, §6

[11] = target: AChE (Homo sapiens, UniProt P22303); assay: AChE inhibition (DTNB, acetylthiocholine); assay type: biochemical; settings: for IC50: read-out: AChE (IC50, μM) ± SD
Chain of AChE (P22303 32-614): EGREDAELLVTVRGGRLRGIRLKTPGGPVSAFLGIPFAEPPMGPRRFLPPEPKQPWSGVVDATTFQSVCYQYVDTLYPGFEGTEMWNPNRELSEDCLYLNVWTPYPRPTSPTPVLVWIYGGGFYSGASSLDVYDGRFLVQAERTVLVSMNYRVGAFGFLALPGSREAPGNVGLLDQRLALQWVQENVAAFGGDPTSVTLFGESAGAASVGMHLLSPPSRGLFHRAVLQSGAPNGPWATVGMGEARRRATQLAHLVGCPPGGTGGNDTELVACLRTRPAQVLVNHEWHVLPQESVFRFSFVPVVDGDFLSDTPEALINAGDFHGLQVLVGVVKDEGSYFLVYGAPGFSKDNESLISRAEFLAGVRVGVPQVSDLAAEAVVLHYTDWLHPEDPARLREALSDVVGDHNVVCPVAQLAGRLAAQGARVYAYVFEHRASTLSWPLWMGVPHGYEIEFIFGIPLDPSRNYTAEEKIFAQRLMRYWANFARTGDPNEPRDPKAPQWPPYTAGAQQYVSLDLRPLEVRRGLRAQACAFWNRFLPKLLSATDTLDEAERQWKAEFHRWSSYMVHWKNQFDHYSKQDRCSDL
Method: All compounds were dissolved in MeOH.

[12] = A-431, 72 h, read-out: IC50 (µM) ± SEM A431
[13] = A-431, read-out: Observed log(IC50, μM) (A431) (converted)
[14] = Vero-E6, 72 h, reduction of virus-induced CPE, read-out: IC50 (µM) SARS-CoV-2
[15] = log of observed IC50 in μM, read-out: Observed log(IC50, μM) (SARS-CoV-2) (converted)

Compound | CC50 at 24 h [1] | IC50 [2] | SI (selectivity index) HCT116 [2] | IC50 [3, 12] | IC50 [3, 13] | SI (selectivity index) A431 [3] | IC50 [4] | IC50 [5] | IC50 [6] | SI (selectivity index) MCF7 [6] | VEGFR-2 % Inhibition [7] | VEGFR-2 RQ (relative quantification) [7] | EGFR % Inhibition [8] | EGFR RQ (relative quantification) [8] | IC50 [9, 14] | IC50 [9, 15] | SI = CC50/IC50 [9] | IC50 ([10]; PaCa-2, 72 h) | SI = IC50 (AChE)/IC50 (BChE) [11] | IC50 [11] | further results
CN1CC(c2ccccc2)C2(CN(S(C)(=O)=O)C/C(=C\c3ccccc3)C2=O)C12C(=O)Nc1ccccc12 (centres unmarked) [Compound 6a, (E)-5″-Benzylidene-1′-methyl-1″-(methylsulfonyl)-4′-phenyldispiro[indoline-3,2′-pyrrolidine-3′,3″-piperidine]-2,4″-dione] | 5430 µM | 16 ± 1.1 µM | > 3.1 | 32.3 ± 1.14 µM | 32.3 µM | > 1.5 | 19.8 ± 2.18 µM | > 50 µM | 19.8 ± 0.99 µM | > 2.5 | 60.9% | 1.2773 | 66.4% | 1.1593 | 34.3 µM | 34.3 µM | 158.6 | 48.4 ± 2.23 µM | 1.1 | 22.2 ± 3.35 µM | SI (selectivity index) PaCa-2 [10]: > 1.0
CN1CC(c2ccccc2)C2(CN(S(C)(=O)=O)C/C(=C\c3ccccc3)C2=O)C12C(=O)Nc1ccc(Cl)cc12 (centres unmarked) [Compound 6b, (E)-5″-Benzylidene-5-chloro-1′-methyl-1″-(methylsulfonyl)-4′-phenyldispiro[indoline-3,2′-pyrrolidine-3′,3″-piperidine]-2,4″-dione] | 1270 µM | 6.92 ± 0.52 µM | 3.6 | 9.15 ± 0.7 µM | 9.15 µM | 2.7 | 29.2 ± 3.62 µM | 24.7 ± 1.26 µM | 7.66 ± 0.68 µM | 3.2 | 64.2% | 1.167 | 54.1% | 1.5804 | 9.63 µM | 9.63 µM | 132.0 | 20.6 ± 1.17 µM | 0.9 | 27.7 ± 5.45 µM | SI (selectivity index) PaCa-2 [10]: 1.2
CCS(=O)(=O)N1C/C(=C\c2ccccc2)C(=O)C2(C1)C(c1ccccc1)CN(C)C21C(=O)Nc2ccccc21 (centres unmarked) [Compound 6c, (E)-5″-Benzylidene-1″-(ethylsulfonyl)-1′-methyl-4′-phenyldispiro[indoline-3,2′-pyrrolidine-3′,3″-piperidine]-2,4″-dione] | 5700 µM | 6.12 ± 0.44 µM | > 8.2 | 33.2 ± 0.91 µM | 33.2 µM | > 1.5 | 65.4 ± 2.42 µM | > 50 µM | > 50 µM |  | 63.8% | 1.18 | 69.6% | 1.0493 | 103 µM | 103 µM | 55.5 | > 50 µM | 1.2 | 78 ± 3.26 µM | 
CCS(=O)(=O)N1C/C(=C\c2ccccc2)C(=O)C2(C1)C(c1ccccc1)CN(C)C21C(=O)Nc2ccc(Cl)cc21 (centres unmarked) [Compound 6d, (E)-5″-Benzylidene-5-chloro-1″-(ethylsulfonyl)-1′-methyl-4′-phenyldispiro[indoline-3,2′-pyrrolidine-3′,3″-piperidine]-2,4″-dione] | 17300 µM | 5.18 ± 0.61 µM | > 9.7 | 4.96 ± 0.25 µM | 4.96 µM | > 10.1 | 34.4 ± 2 µM | > 50 µM | 6.92 ± 0.55 µM | > 7.2 | 63.8% | 1.181 | 62.9% | 1.2774 | 171 µM | 171 µM | 101.1 | 13.1 ± 1.1 µM | 1.2 | 41 ± 7.03 µM | SI (selectivity index) PaCa-2 [10]: > 3.8
CN1CC(c2ccc(F)cc2)C2(CN(S(C)(=O)=O)C/C(=C\c3ccc(F)cc3)C2=O)C12C(=O)Nc1ccccc12 (centres unmarked) [Compound 6e, (E)-5″-(4-Fluorobenzylidene)-4′-(4-fluorophenyl)-1′-methyl-1″-(methylsulfonyl)dispiro[indoline-3,2′-pyrrolidine-3′,3″-piperidine]-2,4″-dione] | 203 µM | 9.89 ± 0.85 µM | 5.0 | 16.1 ± 0.99 µM | 16.1 µM | 3.1 | 22.2 ± 4.54 µM | 49 ± 1.11 µM | 15.5 ± 0.76 µM | 3.2 | 64.5% | 1.158 | 66.7% | 1.147 | 27.9 µM | 27.9 µM | 7.3 | 39.9 ± 1.89 µM | 0.7 | 15.1 ± 5.76 µM | SI (selectivity index) PaCa-2 [10]: 1.2
CCN(CC)CCNC(=O)c1c(C)[nH]c(/C=C2\C(=O)Nc3ccc(F)cc32)c1C [Sunitinib, reference compound] |  |  |  |  |  |  |  |  |  |  |  |  |  |  |  |  |  |  |  |  | IC50 ([10]; MTT, 72 h, PaCa-2): 16.9 ± 0.95 µM
